Measured values from US11142515B2, “Pyrazolyl-ureas as kinase inhibitors” (RESPIVERT LIMITED, priority 2014, dated 2021).

Key:
[1] = molecular target: T1, p38 MAPKα isoform (MAPK14) (Homo sapiens, UniProt Q16539); assay: p38 MAPKα enzyme inhibition (Z-LYTE FRET); assay type: biochemical; conditions: Table 2B, unit inferred; read-out: p38 MAPKα (Enzyme Profile)
T1 construct: purchased Life Technologies
Method in brief: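 Activity was measured indirectly as phosphorylation of a MAPKAP-K2-derived FRET peptide. Enzyme (added at 40 ng/mL) was preincubated 2 h at RT with compound (added solutions 40–0.0012 μg/mL).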

p38MAPKγ (MAPK12) = molecular target: T2, p38MAPKγ (MAPK12) (Homo sapiens, UniProt P53778); assay: p38 MAPKγ enzyme inhibition (Z-LYTE FRET); assay type: biochemical; conditions: Table 2B, unit inferred; read-out: p38 MAPKγ (Enzyme Profile)
T2 construct: purchased Life Technologies
T2 sequence (P53778 1-367): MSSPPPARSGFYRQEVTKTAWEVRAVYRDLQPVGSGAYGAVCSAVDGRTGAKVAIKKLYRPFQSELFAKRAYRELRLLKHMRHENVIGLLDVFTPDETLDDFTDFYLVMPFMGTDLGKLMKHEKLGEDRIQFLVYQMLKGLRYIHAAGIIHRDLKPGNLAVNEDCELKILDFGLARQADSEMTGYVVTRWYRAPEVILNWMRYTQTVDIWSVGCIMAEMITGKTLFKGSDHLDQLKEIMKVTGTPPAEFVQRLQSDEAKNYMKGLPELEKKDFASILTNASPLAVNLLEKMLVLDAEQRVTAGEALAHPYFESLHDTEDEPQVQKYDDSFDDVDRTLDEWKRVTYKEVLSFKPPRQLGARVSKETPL
Method in brief: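 Enzyme (added at 800 ng/mL) was preincubated 2 h at RT with compound (solutions of 40 to 0.0012 μg/mL), then FRET peptide (8 μM) and ATP (400 μM), both as added, were reacted 1 h at RT. Protease development followed for 1 h; phosphorylation was read as the coumarin/fluorescein emission ratio.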

T1 sequence (Q16539 whole entry, canonical isoform): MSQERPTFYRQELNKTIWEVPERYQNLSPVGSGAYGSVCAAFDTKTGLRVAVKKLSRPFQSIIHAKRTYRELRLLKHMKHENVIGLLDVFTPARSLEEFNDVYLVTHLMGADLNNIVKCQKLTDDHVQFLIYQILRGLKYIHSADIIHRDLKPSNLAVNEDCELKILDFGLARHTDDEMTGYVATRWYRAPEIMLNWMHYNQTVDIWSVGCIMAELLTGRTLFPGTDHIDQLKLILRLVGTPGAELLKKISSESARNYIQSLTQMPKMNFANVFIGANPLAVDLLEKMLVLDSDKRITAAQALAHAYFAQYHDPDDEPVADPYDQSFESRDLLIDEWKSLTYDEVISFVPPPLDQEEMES

| IC50 [1] [µM] | IC50 (p38MAPKγ (MAPK12)) [µM] | Structure (SMILES) |
| --- | --- | --- |
| 0.11 | 2.51 | Cc1ccc(-n2nc(C(C)(C)C)cc2NC(=O)Nc2ccc(OCc3ccnc(Nc4cnc(C(=O)N5CCC(C)CC5)cn4)c3)c3ccccc23)cc1 [Example 185, 1-(3-(tert-butyl)-1-(p-tolyl)-1H-pyrazol-5-yl)-3-(4-((2-((5-(4-methylpiperidine-1-carbonyl)pyrazin-2-yl)amino)pyridin-4-yl)methoxy)naphthalen-1-yl) urea] |
| 0.01 | 0.049 | COCCc1cncc(Nc2cc(COc3ccc(NC(=O)Nc4cc(C(C)(C)C)nn4-c4ccc(C)cc4)c4ccccc34)ccn2)n1 [Example 154, 1-(3-(tert-butyl)-1-(p-tolyl)-1H-pyrazol-5-yl)-3-(4-((2-((6-(2-methoxyethyl)pyrazin-2-yl)amino)pyridin-4-yl)methoxy)naphthalen-1-yl)urea] |
| 0.021 | 0.262 | COC1CCN(C(=O)c2cnc(Nc3cc(COc4ccc(NC(=O)Nc5cc(C(C)(C)C)nn5-c5ccc(C)cc5)c5ccccc45)ccn3)cn2)CC1 [Example 56] |
| 0.017 | 0.095 | Cc1ccc(-n2nc(C(C)(C)C)cc2NC(=O)Nc2ccc(OCc3ccnc(Nc4cnc(C(=O)NCCO)cn4)c3)c3ccccc23)cc1 [Example 53, 5-((4-(((4-(3-(3-(tert-Butyl)-1-(p-tolyl)-1H-pyrazol-5-yl)ureido)naphthalen-1-yl)oxy)methyl)pyridin-2-yl)amino)-N-(2-hydroxyethyl)pyrazine-2-carboxamide] |
| 0.01 | 0.074 | Cc1ccc(-n2nc(C(C)(C)C)cc2NC(=O)Nc2ccc(OCc3ccnc(Nc4cncc(C5CCOCC5)n4)c3)c3ccccc23)cc1 [Example 161, 1-(3-(tert-butyl)-1-(p-tolyl)-1H-pyrazol-5-yl)-3-(4-((2-((6-(tetrahydro-2H-pyran-4-yl)pyrazin-2-yl)amino)pyridin-4-yl)methoxy)naphthalen-1-yl)urea] |
| 0.207 | 8.41 | CCCc1cncc(Nc2cc(COc3ccc(NC(=O)Nc4cc(C(C)(C)C)nn4-c4ccc(C)c(F)c4)c4ccccc34)ccn2)n1 [Example 194, 1-(3-(tert-butyl)-1-(3-fluoro-4-methylphenyl)-1H-pyrazol-5-yl)-3-(4-((2-((6-propyl-pyrazin-2-yl)amino)pyridin-4-yl)methoxy)naphthalen-1-yl)urea] |
| 0.0036 | 0.046 | Cc1ccc(-n2nc(C(C)(C)C)cc2NC(=O)Nc2ccc(OCc3ccnc(Nc4cnc(C(=O)N5CCNC(=O)C5)cn4)c3)c3ccccc23)cc1 [Example 249, 1-(3-(tert-butyl)-1-(p-tolyl)-1H-pyrazol-5-yl)-3-(4-((2-((5-(3-oxopiperazine-1-carbonyl)pyrazin-2-yl)amino)pyridin-4-yl)methoxy)naphthalen-1-yl)urea] |
| 0.015 | 0.245 | COCc1cnc(Nc2cc(COc3ccc(NC(=O)Nc4cc(C(C)(C)C)nn4-c4cccc(C)c4)c4ccccc34)ccn2)cn1 [Example 195, 1-(3-(tert-butyl)-1-(m-tolyl)-1H-pyrazol-5-yl)-3-(4-((2-((5-(methoxymethyl)pyrazin-2-yl)amino)pyridin-4-yl)methoxy)naphthalen-1-yl) urea] |
| < 0.00047 | 0.146 | CN(C)Cc1cccc(-n2nc(C(C)(C)C)cc2NC(=O)Nc2ccc(OCc3ccnc(Nc4cnccn4)c3)c3ccccc23)c1 [Example 261, 1-(3-(tert-butyl)-1-(3-((dimethylamino)methyl)phenyl)-1H-pyrazol-5-yl)-3-(4-((2-(pyrazin-2-ylamino)pyridin-4-yl)methoxy)naphthalen-1-yl)urea] |
| 0.0024 | 0.077 | Cc1ccc(-n2nc(C(C)(C)C)cc2NC(=O)Nc2ccc(OCc3ccnc(Nc4cnc(C(=O)N5CC[C@H](N(C)C)C5)cn4)c3)c3ccccc23)cc1 [Example 258, (S)-1-(3-(tert-butyl)-1-(p-tolyl)-1H-pyrazol-5-yl)-3-(4-((2-((5-(3-(dimethyl-amino)pyrrolidine-1-carbonyl)pyrazin-2-yl)amino)pyridin-4-yl)methoxy)naphthalen-1-yl)urea] |
| 0.025 | > 14 | COCCCNC(=O)c1cnc(Nc2cc(COc3ccc(NC(=O)Nc4cc(C(C)(C)C)nn4-c4ccc(C)cc4)c4ccccc34)ccn2)cn1 [Example 186, 5-((4-(((4-(3-(3-(tert-butyl)-1-(p-tolyl)-1H-pyrazol-5-yl)ureido)naphthalen-1-yl)oxy)methyl)pyridin-2-yl)amino)-N-(3-methoxypropyl) pyrazine-2-carboxamide] |
| 0.015 | 0.401 | COc1cccc(-n2nc(C(C)(C)C)cc2NC(=O)Nc2ccc(OCc3ccnc(Nc4cnc(C(=O)N5CCCC5)cn4)c3)c3ccccc23)c1 [Example 216, 1-(3-(tert-butyl)-1-(3-methoxyphenyl)-1H-pyrazol-5-yl)-3-(4-((2-((5-(pyrrolidine-1-carbonyl)pyrazin-2-yl)amino)pyridin-4-yl)methoxy)naphthalen-1-yl)urea] |
| 0.002 | 0.026 | CN(C)c1cncc(Nc2cc(COc3ccc(NC(=O)Nc4cc(C(C)(C)C)nn4-c4ccc(CO)cc4)c4ccccc34)ccn2)n1 [Example 114, 1-(3-(tert-butyl)-1-(4-(hydroxymethyl)phenyl)-1H-pyrazol-5-yl)-3-(4-((2-((6-(dimethylamino)pyrazin-2-yl)amino)pyridin-4-yl)methoxy)naphthaien-1-yl)urea] |
| 0.018 | 0.117 | Cc1ccc(-n2nc(C(C)(C)C)cc2NC(=O)Nc2ccc(OCc3ccnc(Nc4cnc(C(=O)N5CCC[C@H](O)C5)cn4)c3)c3ccccc23)cc1 [Example 232, (S)-1-(3-(tert-butyl)-1-(p-tolyl)-1H-pyrazol-5-yl)-3-(4-((2-((5-(3-hydroxypiperidine-1-carbonyl)pyrazin-2-yl)amino)pyridin-4-yl)methoxy)naphthalen-1-yl)urea] |
| < 0.00042 | 0.074 | Cc1ccc(-n2nc(C(C)(C)C)cc2NC(=O)Nc2ccc(OCc3ccnc(Nc4cnc(C(=O)NCCN(C)C)cn4)c3)c3ccccc23)cc1 [Example 268, 5-((4-(((4-(3-(3-(tert-butyl)-1-(p-tolyl)-1H-pyrazol-5-yl)ureido)naphthalen-1-yl)oxy)methyl)pyridin-2-yl)amino)-N-(2-(dimethylamino)ethyl) pyrazine-2-carboxamide] |
| 0.011 | 0.103 | Cc1ccc(-n2nc(C(C)(C)C)cc2NC(=O)Nc2ccc(OCc3ccnc(Nc4cnc(C(=O)N(C)CCCO)cn4)c3)c3ccccc23)cc1 [Example 223, 5-((4-(((4-(3-(3-(tert-butyl)-1-(p-tolyl)-1H-pyrazol-5-yl)ureido)naphthalen-1-yl)oxy)methyl)pyridin-2-yl)amino)-N-(3-hydroxypropyl)-N-methylpyrazine-2-carboxamide] |
| 0.011 | > 13.7 | COCCNC(=O)c1cnc(Nc2cc(COc3ccc(NC(=O)Nc4cc(C(C)(C)C)nn4-c4ccc(OC)c(C)c4)c4ccccc34)ccn2)cn1 [Example 132, 5-((4-(((4-(3-(3-(tert-butyl)-1-(4-methoxy-3-methyl-phenyl)-1H-pyrazol-5-yl)ureido)naphthalen-1-yl)oxy)methyl)pyridin-2-yl)amino)-N-(2-methoxyethyl)pyrazine-2-carboxamide] |
| 0.011 | 0.174 | COCc1cccc(-n2nc(C(C)(C)C)cc2NC(=O)Nc2ccc(OCc3ccnc(Nc4cnc(CN5CCOCC5)cn4)c3)c3ccccc23)c1 [Example 262, 1-(3-(tert-butyl)-1-(3-(methoxymethyl)phenyl)-1H-pyrazol-5-yl)-3-(4-((2-((5-(morpholinomethyl)pyrazin-2-yl)amino)pyridin-4-yl)methoxy)naphthalen-1-yl)urea] |
| 0.012 | 0.049 | Cc1ccc(-n2nc(C(C)(C)C)cc2NC(=O)Nc2ccc(OCc3ccnc(Nc4cncc(CCO)n4)c3)c3ccccc23)cc1 [Example 171, 1-(3-(tert-butyl)-1-(p-tolyl)-1H-pyrazol-5-yl)-3-(4-((2-((6-(2-hydroxyethyl)pyrazin-2-yl)amino)pyridin-4-yl)methoxy)naphthalen-1-yl)urea] |
| 0.0041 | 0.119 | Cc1ccc(-n2nc(C(C)(C)C)cc2NC(=O)Nc2ccc(OCc3ccnc(Nc4cnc(CO)cn4)c3)c3ccccc23)cc1C [Example 147, 1-(3-(tert-butyl)-1-(3,4-dimethylphenyl)-1H-pyrazol-5-yl)-3-(4-((2-((5-(hydroxymethyl)pyrazin-2-yl)amino)pyridin-4-yl)methoxy)naphthalen-1-yl) urea] |
| 0.05 | > 15.2 | COc1cc(-n2nc(C(C)(C)C)cc2NC(=O)Nc2ccc(OCc3ccnc(Nc4cnc(C)c(C)n4)c3)c3ccccc23)ccc1C [Example 208, 1-(3-(tert-butyl)-1-(3-methoxy-4-methylphenyl)-1H-pyrazol-5-yl)-3-(4-((2-((5,6-dimethylpyrazin-2-yl)amino)pyridin-4-yl)methoxy)naphthalen-1-yl) urea] |
